Laboratory results taken from US5990170A, “Therapeutic use of mono and bicarboxylic acid amides active at the peripheral cannabinoid receptor” (Lifegroup S.p.A., priority 1994, dated 1999).
“Also recorded” adds a separate entry of the source. Where two headings read alike, the source gives them in different places.

Assays:
RBL-2H3 cells = assay: Inhibition of 3H-serotonin release induced by ADNP/DNP-HSA immunogenic stimulation in RBL-2H3 cells; type: cell-based, rat; details: for inhibition at 12.5 µM: RBL-2H3, read-out: 3H-serotonin net release inhibition (%), 12.5 μM; for inhibition at 10 µM: RBL-2H3, 10 μM, 1% DMSO and 0.1% ethanol (Table 4)
[1] = molecular target: T1, CB2 receptor (RBL-2H3 cell membranes) (Rattus norvegicus, UniProt Q9QZN9); assay: Competitive displacement of 3H-WIN 55,212-2 binding to RBL-2H3 cell membranes; details: for inhibition at 10 µM: read-out: % Displacement
T1 construct: Preparation of Plasmatic Membranes of RBL-2H3 Cells; endogenous in cells; host or cells: RBL-2H3 (rat basophilic leukemia) cell membranes
T1 sequence (Q9QZN9 1-360): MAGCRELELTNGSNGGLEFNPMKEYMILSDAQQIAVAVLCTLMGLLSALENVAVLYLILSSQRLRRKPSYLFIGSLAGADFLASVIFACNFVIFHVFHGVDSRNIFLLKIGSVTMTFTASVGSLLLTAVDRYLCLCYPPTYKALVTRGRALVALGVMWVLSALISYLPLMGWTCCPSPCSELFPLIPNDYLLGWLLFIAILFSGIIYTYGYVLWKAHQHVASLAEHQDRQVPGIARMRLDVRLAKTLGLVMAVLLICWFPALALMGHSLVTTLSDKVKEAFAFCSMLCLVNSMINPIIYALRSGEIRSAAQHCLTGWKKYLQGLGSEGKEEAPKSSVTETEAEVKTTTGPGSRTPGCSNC
Experimental: (§1) RBL-2H3 cells (100×10^6), frozen at -80° C., were thawed with 4 ml of Tris-HCl buffer solution 50 mM (pH 7.4), added with 0.25% w/v of Tripsin inhibitor, TYPE II-S: SOY BEAN® (distributed by Sigma). The cells were resuspended in the buffer and homogenized. The homogenate was centrifuged at 1500×g at 4° C. for 10 min. The supernatant obtained was collected and the precipitate was resuspended in 4 ml of the previous buffer. The resuspended precipitate was homogenized and centrifuged again at 1500×g at 4° C. for 5-10 min. The resulting supernatant was combined to the supernatant previously obtained and centrifuged at 5000×g for 10 min. After centrifugation, the supernatant was collected and further centrifuged at 40,000×g at 4° C. for 30 min. The resulting precipitate was resuspended in 0.5 ml of the buffer solution described above, with addition of 1% Bovine Serum Albumin fatty acid free. The obtained suspension was centrifuged at 40,000×g at 4° C. for 30 min. The resulting precipitate was collected and resuspended in buffer solution containing 50 mM Tris HCl, 1 mM Tris-EDTA, 3 mM MgCl2, pH 7.4, in order to obtain a proteic concentration of 1 μg/μl approx. This preparation may be used fresh, or frozen at -80° C. and utilized within few days.
Non-radioactive WIN 55,212-2 (1 μM) was used to inhibit specific binding. […] The competitors were added to the binding mixture prior to the labelled ligand. In both cases, for an evaluation of the reference specific binding, ethanol and DMSO were added at the same final concentration to the total binding and to the aspecific one, also in the absence of competitors.
WIN 55,212-2 was used at a concentration of 3 μM, whereas the other compounds were used at a concentration of 10 μM.
Incubation was carried out in the presence of 1% DMSO. The values of Inhibitory Concentration 50 (IC50) are expressed as means ± SEM, after the number of experiments reported hereinbelow.

[2] = Solubility in water and organic solvents; details: for solubility: organic solvent or mixture
[3] = molecular target: T1, CB2 receptor (RBL-2H3 cell membranes); assay: Competitive displacement of 3H-WIN 55,212-2 binding to RBL-2H3 cell membranes; details: competitor 10 μM
physchem = details: chloroform, organic solvent or mixture
CB1 central receptor [4] = details: result in words; cited from earlier work
CB1 central receptor [5] = details: result in words; Devane et al., 1992; cited from earlier work
[6] = molecular target: T1, CB2 receptor (RBL-2H3 cell membranes); assay: Saturation curve of labelled receptor agonist 3H-WIN 55,212-2 on RBL-2H3 cell membranes; type: binding; details: 0.5 to 20 nM 3H-WIN 55,212-2; 30 μg membrane proteins; 30° C., 60 min
Experimental: as §1

activated macrophages = details: result in words; Fischer-Stenger et al., 1993; cited from earlier work
[7] = read-out: ED50, inhibition of 3H-serotonin release, + anandamide (12.5 μM) (Table 5), 15 min

For `CCCCCCCCCCCCCCCC(=O)N[C@@H](CO)c1ccccc1` [Example 1, N-palmitoyl-[(R)-2-amino-2-phenylethanol]], the “3H-serotonin net release inhibition (%)” value (RBL-2H3 cells; 3 μM, + anandamide (12.5 μM) (Table 4)) was 39%, the activity at 3 µM (RBL-2H3 cells; Rattus norvegicus, RBL-2H3, 0.25 h, 3 μM, 0.1% DMSO and 0.1% ethanol (Table 3), read-out: 3H-serotonin net release (%)) was 0% and the IC50 (RBL-2H3 cells; Rattus norvegicus, RBL-2H3, 0.25 h, 0.1% DMSO and 0.1% ethanol (Table 3), read-out: ED50 (the source's name)) was 600 nM. For the same compound, the inhibition at 3 µM (RBL-2H3 cells; Rattus norvegicus, RBL-2H3, read-out: 3H-serotonin net release inhibition (%)) was 100%, the “effect of anandamide co-incubation on the ability to inhibit serotonin release” value (RBL-2H3 cells; co-incubation with anandamide, in words) was “reduces the ability” and the IC50 (RBL-2H3 cells; [7]) was 4000 nM. The “functional effect following receptor activation (serotonin release)” value (RBL-2H3 cells; result in words) was “can inhibit the effects induced by mast cell activation and exert an effect that is higher than or comparable to the one of cannabinoids”, the IC50 [1] was 0.4 nM and the inhibition at 10 µM [1] was 77%. The solubility ([2]; dmso) was over 10000 µg/mL, the solubility ([2]; ethanol) was over 10000 µg/mL and the solubility in water ([2]; result in words) was “scarcely soluble”. The Specific binding ([3]; 0.1% DMSO) was 325.
`CCCCCCCCCCCCCCCCCC(=O)NCCO` [Example 23, N-(2-hydroxyethyl)-stearoylamide] gave a solubility (physchem) of over 5000 µg/mL, an inhibition at 60 µM (RBL-2H3 cells; Rattus norvegicus, RBL-2H3, read-out: 3H-serotonin release inhibition %, 0.2% DMSO, 60 μM (Table 8)) of 60% and an inhibition at 100 µM (RBL-2H3 cells; Rattus norvegicus, RBL-2H3, read-out: 3H-serotonin release inhibition %, 1% DMSO, 100 μM (Table 8)) of 91%. It also gave an EC50 (RBL-2H3 cells; Rattus norvegicus, RBL-2H3, read-out: EC50, concentration inhibiting by 50% the net release of 3H serotonin, 1% DMSO, 15 minutes release period (Table 9)) of 11000 nM, an IC50 (RBL-2H3 cells; [7]) of 10100 nM and an IC50 (RBL-2H3 cells; read-out: ED50, inhibition of 3H-serotonin release, - anandamide (Table 5), 15 min) of 2400 nM.
For `CCCCC/C=C\C/C=C\C/C=C\C/C=C\CCCC(=O)NCCO` [anandamide, arachidonylethanolamide, reference compound], the inhibition at 12.5 µM (RBL-2H3 cells; Rattus norvegicus, + WIN 55,212-2 (30 μm) (Table 6)) was 15%, the inhibition at 12.5 µM (RBL-2H3 cells; Rattus norvegicus, - WIN (Table 6)) was 7% and the “3H-serotonin net release (%)” value (RBL-2H3 cells; concentration not given, 0.1% DMSO and 0.1% ethanol (Table 3), 15 min) was 100%. The “antagonism of the protective effects of cannabinoids” value (RBL-2H3 cells; result in words) was “competitive antagonism on the peripheral receptor”, the “functional effect following receptor activation (serotonin release)” value (RBL-2H3 cells; result in words) was “unable to affect serotonin release; also recorded: is not able to induce biological effects” and the “functional activation of CB1 central receptor” value (CB1 central receptor [4]) was “can functionally activate CB1 central receptor”. For the same compound, the inhibition at 10 µM [1] was 95%, the “binding to the peripheral receptor” value ([1]; result in words) was “able to bind to the receptor and to compete; also recorded: having binding affinity for the peripheral receptor” and the Specific binding ([3]; 0.1% ethanol) was 99.
Work on `CCCCCCCCCCCCCCCC(=O)NCCO` [Example 25, N-palmitoylethanolamide] yielded an inhibition at 10 µM (RBL-2H3 cells; Rattus norvegicus, + anandamide (12.5 μM), read-out: 3H-serotonin net release inhibition (%)) of 0%, an inhibition at 10 µM (RBL-2H3 cells; Rattus norvegicus, - anandamide, read-out: 3H-serotonin net release inhibition (%)) of 100% and an activity at 10 µM (RBL-2H3 cells; Rattus norvegicus, RBL-2H3, 0.25 h, 10 μM (minimum effective concentration), 1% DMSO and 0.1% ethanol (Table 3), read-out: 3H-serotonin net release (%)) of 0%. The IC50 (RBL-2H3 cells; Rattus norvegicus, RBL-2H3, 0.25 h, 1% DMSO and 0.1% ethanol (Table 3), read-out: ED50 (the source's name)) was 2600 nM, the “functional effect following receptor activation (serotonin release)” value (RBL-2H3 cells; result in words) was “can inhibit the effects induced by mast cell activation and exert an effect that is higher than or comparable to the one of cannabinoids” and the “functional effect following receptor activation (serotonin release)” value (RBL-2H3 cells; result in words, listed as palmitoylethanolamide) was “capable of functionally activating the peripheral receptor”. For the same compound, the “binding to the central receptor” value (CB1 central receptor [5]) was “not able to bind to the central receptor”, the IC50 [1] was 1 ± 0.55 nM and the inhibition at 10 µM [1] was 23%. The “solubility in organic solvents” value ([2]; result in words) was “in hot MetOH, CHCl3, DMSO”, the solubility in water ([2]; result in words) was “insoluble” and the Specific binding ([3]; 0.1% DMSO) was 1103.
In the case of `Cc1c(C(=O)c2cccc3ccccc23)c2cccc3c2n1C(CN1CCOCC1)CO3` (stereo not shown) [3H-WIN 55,212-2], the Bmax [6] is reported as 100 to 250 pM.
In the case of `CCCCCc1cc(O)c2c(c1)OC(C)(C)[C@@H]1CCC(C)=C[C@@H]21` [Δ9-THC, Δ9-tetrahydrocannabinol, reference compound], the activity at 25 µM (RBL-2H3 cells; Rattus norvegicus, RBL-2H3, 0.25 h, read-out: 3H-serotonin net release (%)) is reported as 27%, the IC50 (RBL-2H3 cells; Rattus norvegicus, RBL-2H3, 0.25 h, read-out: ED50) is reported as 5000 nM and the inhibition at 25 µM (RBL-2H3 cells; Rattus norvegicus, RBL-2H3, read-out: 3H-serotonin net release inhibition (%), 25 μM, - anandamide (Table 4)) is reported as 73%. The “functional effect following receptor activation (serotonin release)” value (RBL-2H3 cells; result in words) was “able to inhibit, in a concentration-dependent way, RBL cells immunogenic activation” and the “effect on cytolytic activity of activated macrophages” value (activated macrophages) was “decreases the cytolytic activity of activated macrophages”.
